# The supplement of paper PMC10307832
# Assays:
# Test in all cases: relative viability (nuclei count vs DMSO), 5 days (fraction); higher = more cells survive
# 201T = system: 201T
# How it was run: (§1)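 Relative viability equals treated-well nuclei counts divided by vehicle-well nuclei counts. Counts came from 4× images of lung cancer cell lines grown in 1536-well plates for 5 days after pin-tool dosing on the day after seeding. Dosing used one drug alone or a fixed anchor-drug dose plus five library-drug doses (not always all listed) in √10 steps, and values are medians of duplicate plates.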
# A-427 = system: A-427
# How it was run: as §1
# ABC-1 = system: ABC-1
# How it was run: as §1
# BEN = system: BEN
# How it was run: as §1
# CAL-12T = system: CAL-12T
# How it was run: as §1
# H3255 = system: H3255
# How it was run: as §1
# LC-2-ad = system: LC-2-ad
# How it was run: as §1
# LCLC-97TM1 = system: LCLC-97TM1
# How it was run: as §1
# NCI-H1650 = system: NCI-H1650
# How it was run: as §1
# NCI-H1651 = system: NCI-H1651
# How it was run: as §1
# NCI-H1915 = system: NCI-H1915
# How it was run: as §1
# NCI-H1944 = system: NCI-H1944
# How it was run: as §1
# NCI-H2023 = system: NCI-H2023
# How it was run: as §1
# NCI-H2087 = system: NCI-H2087
# How it was run: as §1
# NCI-H441 = system: NCI-H441
# How it was run: as §1
# NCI-H460 = system: NCI-H460
# How it was run: as §1
# NCI-H520 = system: NCI-H520
# How it was run: as §1
# NCI-H596 = system: NCI-H596
# How it was run: as §1
# NCI-H650 = system: NCI-H650
# How it was run: as §1
# NCI-H661 = system: NCI-H661
# How it was run: as §1
# NCI-H727 = system: NCI-H727
# How it was run: as §1
# PC-3 [JPC-3] = system: PC-3 [JPC-3]
# How it was run: as §1
structure (smiles),measurement,setting,value
Nc1ccn([C@@H]2O[C@H](CO)[C@@H](O)[C@@H]2O)c(=O)n1 [Cytarabine] + Cc1nc(Nc2ncc(C(=O)Nc3c(C)cccc3Cl)s2)cc(N2CCN(CCO)CC2)n1 [Dasatinib] (partner 0.075 µM),relative viability,201T; first compound 0.005 µM,0.659
same,relative viability,201T; first compound 0.01581 µM,0.642
same,relative viability,201T; first compound 0.05 µM,0.709
same,relative viability,201T; first compound 0.1581 µM,0.444
same,relative viability,201T; first compound 0.5 µM,0.501
same,relative viability,A-427; first compound 0.005 µM,0.591
same,relative viability,A-427; first compound 0.01581 µM,0.215
same,relative viability,A-427; first compound 0.05 µM,0.195
same,relative viability,A-427; first compound 0.1581 µM,0.141
same,relative viability,A-427; first compound 0.5 µM,0.135
same,relative viability,ABC-1; first compound 0.005 µM,0.501
same,relative viability,ABC-1; first compound 0.01581 µM,0.492
same,relative viability,ABC-1; first compound 0.05 µM,0.564
same,relative viability,ABC-1; first compound 0.1581 µM,0.473
same,relative viability,ABC-1; first compound 0.5 µM,0.332
same,relative viability,BEN; first compound 0.005 µM,0.332
same,relative viability,BEN; first compound 0.01581 µM,0.312
same,relative viability,BEN; first compound 0.05 µM,0.204
same,relative viability,BEN; first compound 0.1581 µM,0.175
same,relative viability,BEN; first compound 0.5 µM,0.213
same,relative viability,CAL-12T; first compound 0.005 µM,0.302
same,relative viability,CAL-12T; first compound 0.01581 µM,0.306
same,relative viability,CAL-12T; first compound 0.05 µM,0.447
same,relative viability,CAL-12T; first compound 0.1581 µM,0.284
same,relative viability,CAL-12T; first compound 0.5 µM,0.109
same,relative viability,H3255; first compound 0.005 µM,0.363
same,relative viability,H3255; first compound 0.01581 µM,0.3
same,relative viability,H3255; first compound 0.05 µM,0.273
same,relative viability,H3255; first compound 0.1581 µM,0.199
same,relative viability,H3255; first compound 0.5 µM,0.319
same,relative viability,LC-2-ad; first compound 0.005 µM,0.358
same,relative viability,LC-2-ad; first compound 0.01581 µM,0.308
same,relative viability,LC-2-ad; first compound 0.05 µM,0.347
same,relative viability,LC-2-ad; first compound 0.1581 µM,0.225
same,relative viability,LC-2-ad; first compound 0.5 µM,0.214
same,relative viability,LCLC-97TM1; first compound 0.005 µM,0.795
same,relative viability,LCLC-97TM1; first compound 0.01581 µM,0.839
same,relative viability,LCLC-97TM1; first compound 0.05 µM,0.798
same,relative viability,LCLC-97TM1; first compound 0.1581 µM,0.227
same,relative viability,LCLC-97TM1; first compound 0.5 µM,0.264
same,relative viability,NCI-H1650; first compound 0.005 µM,0.257
same,relative viability,NCI-H1650; first compound 0.01581 µM,0.234
same,relative viability,NCI-H1650; first compound 0.05 µM,0.177
same,relative viability,NCI-H1650; first compound 0.1581 µM,0.136
same,relative viability,NCI-H1650; first compound 0.5 µM,0.122
same,relative viability,NCI-H1651; first compound 0.005 µM,0.406
same,relative viability,NCI-H1651; first compound 0.01581 µM,0.457
same,relative viability,NCI-H1651; first compound 0.05 µM,0.397
same,relative viability,NCI-H1651; first compound 0.1581 µM,0.179
same,relative viability,NCI-H1651; first compound 0.5 µM,0.205
same,relative viability,NCI-H1915; first compound 0.005 µM,0.366
same,relative viability,NCI-H1915; first compound 0.01581 µM,0.29
same,relative viability,NCI-H1915; first compound 0.05 µM,0.273
same,relative viability,NCI-H1915; first compound 0.1581 µM,0.183
same,relative viability,NCI-H1915; first compound 0.5 µM,0.181
same,relative viability,NCI-H1944; first compound 0.005 µM,0.177
same,relative viability,NCI-H1944; first compound 0.01581 µM,0.123
same,relative viability,NCI-H1944; first compound 0.05 µM,0.117
same,relative viability,NCI-H1944; first compound 0.1581 µM,0.0903
same,relative viability,NCI-H1944; first compound 0.5 µM,0.0942
same,relative viability,NCI-H2023; first compound 0.005 µM,0.315
same,relative viability,NCI-H2023; first compound 0.01581 µM,0.219
same,relative viability,NCI-H2023; first compound 0.05 µM,0.145
same,relative viability,NCI-H2023; first compound 0.1581 µM,0.107
same,relative viability,NCI-H2023; first compound 0.5 µM,0.0893
same,relative viability,NCI-H2087; first compound 0.005 µM,0.747
same,relative viability,NCI-H2087; first compound 0.01581 µM,0.712
same,relative viability,NCI-H2087; first compound 0.05 µM,0.82
same,relative viability,NCI-H2087; first compound 0.1581 µM,0.265
same,relative viability,NCI-H2087; first compound 0.5 µM,0.233
same,relative viability,NCI-H441; first compound 0.005 µM,0.545
same,relative viability,NCI-H441; first compound 0.01581 µM,0.533
same,relative viability,NCI-H441; first compound 0.05 µM,0.485
same,relative viability,NCI-H441; first compound 0.1581 µM,0.324
same,relative viability,NCI-H441; first compound 0.5 µM,0.293
same,relative viability,NCI-H460; first compound 0.005 µM,0.394
same,relative viability,NCI-H460; first compound 0.01581 µM,0.259
same,relative viability,NCI-H460; first compound 0.05 µM,0.105
same,relative viability,NCI-H460; first compound 0.1581 µM,0.0311
same,relative viability,NCI-H460; first compound 0.5 µM,0.0213
same,relative viability,NCI-H520; first compound 0.005 µM,0.218
same,relative viability,NCI-H520; first compound 0.01581 µM,0.199
same,relative viability,NCI-H520; first compound 0.05 µM,0.263
same,relative viability,NCI-H520; first compound 0.1581 µM,0.187
same,relative viability,NCI-H520; first compound 0.5 µM,0.142
same,relative viability,NCI-H596; first compound 0.005 µM,0.606
same,relative viability,NCI-H596; first compound 0.01581 µM,0.477
same,relative viability,NCI-H596; first compound 0.05 µM,0.601
same,relative viability,NCI-H596; first compound 0.1581 µM,0.48
same,relative viability,NCI-H596; first compound 0.5 µM,0.427
same,relative viability,NCI-H650; first compound 0.005 µM,0.474
same,relative viability,NCI-H650; first compound 0.01581 µM,0.399
same,relative viability,NCI-H650; first compound 0.05 µM,0.257
same,relative viability,NCI-H650; first compound 0.1581 µM,0.213
same,relative viability,NCI-H650; first compound 0.5 µM,0.165
same,relative viability,NCI-H661; first compound 0.005 µM,0.636
same,relative viability,NCI-H661; first compound 0.01581 µM,0.529
same,relative viability,NCI-H661; first compound 0.05 µM,0.516
same,relative viability,NCI-H661; first compound 0.1581 µM,0.358
same,relative viability,NCI-H661; first compound 0.5 µM,0.283
same,relative viability,NCI-H727; first compound 0.005 µM,0.319
same,relative viability,NCI-H727; first compound 0.01581 µM,0.303
same,relative viability,NCI-H727; first compound 0.05 µM,0.447
same,relative viability,NCI-H727; first compound 0.1581 µM,0.271
same,relative viability,NCI-H727; first compound 0.5 µM,0.294
same,relative viability,PC-3 [JPC-3]; first compound 0.005 µM,0.952
same,relative viability,PC-3 [JPC-3]; first compound 0.01581 µM,0.884
same,relative viability,PC-3 [JPC-3]; first compound 0.05 µM,1.01
same,relative viability,PC-3 [JPC-3]; first compound 0.1581 µM,0.63
same,relative viability,PC-3 [JPC-3]; first compound 0.5 µM,0.603
